{"source": "patent US11427783B2", "about": "“Perfuming compositions” (Firmenich SA, priority 2016, dated 2022)", "key": {"[1]": {"experiment": "physchem"}, "[2]": {"experiment": "Log P (n-octanol/water) of perfuming compounds"}, "[3]": {"experiment": "Volatility of perfuming compounds in air", "format": "physicochemical"}, "[4]": {"experiment": "Odor threshold of perfuming compounds in air"}, "[5]": {"settings": "Table 8, perfuming compounds having a sweet note"}, "[6]": {"settings": "n-octanol/water, perfuming compounds having a fruity note (Table 6)"}, "[7]": {"settings": "Table 5, perfuming compounds having a green note"}, "[8]": {"settings": "Table 6, perfuming compounds having a fruity note"}, "[9]": {"settings": "Table 10, perfuming compounds having a woody note"}, "[10]": {"settings": "Table 9, perfuming compounds having a gourmand note"}}, "note": "Where two headings read alike, the source gives them in different places."}
{"smiles": "C/C=C(\\C)C(=O)OCCCCCC", "note": "[hexyl (2E)-2-methyl-2-butenoate]", "values": [{"measurement": "logP", "setting": "[1]; n-octanol/water", "value": 4.8}, {"measurement": "Log P (n-octanol/water)", "setting": "[2]; [5]", "value": 4.80}, {"measurement": "Log P (n-octanol/water)", "setting": "[2]; [6]", "value": 4.80}]}
{"smiles": "CC/C=C\\CC/C=C/C=O", "note": "[(2E,6Z)-2,6-NONADIENAL″, (2E,6Z)-2,6-NONADIENAL]", "values": [{"measurement": "Volatility", "setting": "[3]; Table 4, watery note", "value": 632.43, "unit": "μg/l air"}, {"measurement": "Volatility", "setting": "[3]; [7]", "value": 632.43, "unit": "μg/l air"}, {"measurement": "Odor Threshold", "setting": "[4]; Table 4, watery note", "value": "1.46E−04", "unit": "μg/l air"}]}
{"smiles": "CC(=O)OCC=C(C)C", "note": "[3-methyl-2-buten-1-yl acetate]", "values": [{"measurement": "logP", "setting": "[1]; n-octanol/water", "value": 2.19}, {"measurement": "Log P (n-octanol/water)", "setting": "[2]; [6]", "value": 2.19}]}
{"smiles": "CCCCCC(=O)OC", "note": "[METHYL HEXANOATE]", "values": [{"measurement": "logP", "setting": "[1]; n-octanol/water", "value": 2.65}, {"measurement": "Log P (n-octanol/water)", "setting": "[2]; [6]", "value": 2.65}]}
{"smiles": "CC/C=C\\CCOC(=O)CCC", "note": "[(3Z)-3-hexen-1-yl butyrate]", "values": [{"measurement": "logP", "setting": "[1]; n-octanol/water", "value": 3.59}, {"measurement": "Log P (n-octanol/water)", "setting": "[2]; [6]", "value": 3.59}]}
{"smiles": "CC(C)(O)CCC1CCCCC1", "note": "[4-CYCLOHEXYL-2-METHYL-2-BUTANOL]", "values": [{"measurement": "logP", "setting": "[1]; n-octanol/water", "value": 3.93}, {"measurement": "Log P (n-octanol/water)", "setting": "[2]; Table 7, citrus note", "value": 3.93}]}
{"smiles": "C/C=C/C(=O)C1=C(C)CCCC1(C)C", "values": [{"measurement": "Volatility (μg/l air)", "setting": "[3]; [8]", "value": 81.66, "unit": "μg/l air"}, {"measurement": "Volatility (μg/l air)", "setting": "[3]; [9]", "value": 81.66, "unit": "μg/l air"}, {"measurement": "logP", "setting": "[1]; n-octanol/water", "value": 3.63}, {"measurement": "Log P (n-octanol/water)", "setting": "[2]; [9]", "value": 3.63}]}
{"smiles": "CC(=O)OC(C)CCC=C(C)CCC=C(C)C", "note": "(stereo not drawn) [1,5,9-TRIMETHYL-4,8-DECADIENYL ACETATE]", "values": [{"measurement": "logP", "setting": "[1]; n-octanol/water", "value": 5.28}, {"measurement": "Log P (n-octanol/water)", "setting": "[2]; [8]", "value": 5.28}]}
{"smiles": "C=CC(C)(O)CCC=C(C)C", "note": "(racemic) [(+−)-3,7-dimethyl-1,6-octadien-3-ol]", "values": [{"measurement": "Odor Threshold", "setting": "[4]; Table 7, citrus note", "value": "8.89E−05", "unit": "μg/l air"}]}
{"smiles": "CC(C)c1cccc(C(C)CC=O)c1", "note": "(racemic) [(+−)-3-(3-ISOPROPYL-1-PHENYL)BUTANAL]", "values": [{"measurement": "Volatility", "setting": "[3]; Table 4, watery note", "value": 14.74, "unit": "μg/l air"}, {"measurement": "Volatility", "setting": "[3]; [7]", "value": 14.74, "unit": "μg/l air"}, {"measurement": "Odor Threshold", "setting": "[4]; Table 4, watery note", "value": "7.71E−04", "unit": "μg/l air"}]}
{"smiles": "CCCCCCOC(=O)C(C)C", "note": "[hexyl 2-methylpropanoate]", "values": [{"measurement": "logP", "setting": "[1]; n-octanol/water", "value": 4.31}, {"measurement": "Log P (n-octanol/water)", "setting": "[2]; [6]", "value": 4.31}]}
{"smiles": "CC/C=C\\CCOC(=O)C/C=C\\CC", "note": "[(3Z)-3-hexen-1-yl (3Z)-3-hexenoate]", "values": [{"measurement": "logP", "setting": "[1]; n-octanol/water", "value": 4.22}, {"measurement": "Log P (n-octanol/water)", "setting": "[2]; [5]", "value": 4.22}, {"measurement": "Log P (n-octanol/water)", "setting": "[2]; [10]", "value": 4.22}, {"measurement": "Log P (n-octanol/water)", "setting": "[2]; [6]", "value": 4.22}]}
{"smiles": "O=Cc1ccccc1", "note": "[BENZALDEHYDE]", "values": [{"measurement": "logP", "setting": "[1]", "value": 1.33}, {"measurement": "Log P (n-octanol/water)", "setting": "[2]; [5]", "value": 1.33}]}
{"smiles": "CCCCC(CC)C(=O)OC", "note": "(racemic) [(+−)-methyl 2-ethylhexanoate]", "values": [{"measurement": "Volatility (μg/l air)", "setting": "[3]; [9]", "value": 6677.64, "unit": "μg/l air"}, {"measurement": "logP", "setting": "[1]; n-octanol/water", "value": 3.37}, {"measurement": "Log P (n-octanol/water)", "setting": "[2]; [9]", "value": 3.37}]}
{"smiles": "CCCC(=O)OCC", "note": "[ETHYL BUTANOATE]", "values": [{"measurement": "logP", "setting": "[1]; n-octanol/water", "value": 2.03}, {"measurement": "Log P (n-octanol/water)", "setting": "[2]; [6]", "value": 2.03}]}
{"smiles": "CC1CCC(=O)O1", "note": "(racemic) [(+−)-4-PENTANOLIDE]", "values": [{"measurement": "logP", "setting": "[1]", "value": -0.12}, {"measurement": "Log P (n-octanol/water)", "setting": "[2]; Table 7, citrus note", "value": "−0.12"}]}
{"smiles": "CCCOC(=O)[C@H](C)OC(C)(C)CC", "note": "[(−)-PROPYL (S)-2-(1,1-DIMETHYLPROPOXY)PROPANOATE]", "values": [{"measurement": "Odor Threshold", "setting": "[4]; Table 7, citrus note", "value": "4.98E−01", "unit": "μg/l air"}, {"measurement": "logP", "setting": "[1]; n-octanol/water", "value": 3.17}]}
{"smiles": "CCCC1CCCC(=O)O1", "note": "(racemic) [(+−)-6-propyltetrahydro-2H-pyran-2-one]", "values": [{"measurement": "logP", "setting": "[1]; n-octanol/water", "value": 1.47}, {"measurement": "Log P (n-octanol/water)", "setting": "[2]; Table 7, citrus note", "value": 1.47}]}
{"smiles": "C=C(C)CC(C(C)=O)C(=O)OCC", "note": "(racemic)", "values": [{"measurement": "logP", "setting": "[1]; n-octanol/water", "value": 2.15}, {"measurement": "Log P (n-octanol/water)", "setting": "[2]; [6]", "value": 2.15}]}
{"smiles": "CC1CC(C)(c2ccccc2)CO1", "note": "(racemic)", "values": [{"measurement": "logP", "setting": "[1]; n-octanol/water", "value": 3.02}, {"measurement": "Log P (n-octanol/water)", "setting": "[2]; [6]", "value": 3.02}]}
{"smiles": "C/C=C/c1ccc(O)c(OC)c1", "note": "[2-methoxy-4-[(1E)-1-propen-1-yl]phenol]", "values": [{"measurement": "Volatility (μg/l air)", "setting": "[3]; [5]", "value": 11.28, "unit": "μg/l air"}, {"measurement": "Volatility (μg/l air)", "setting": "[3]; [10]", "value": 11.28, "unit": "μg/l air"}, {"measurement": "logP", "setting": "[1]; n-octanol/water", "value": 2.15}, {"measurement": "Log P (n-octanol/water)", "setting": "[2]; [10]", "value": 2.15}]}
{"smiles": "CCCCCC/C(C=O)=C\\c1ccccc1", "note": "[(2E)-2-benzylideneoctanal]", "values": [{"measurement": "logP", "setting": "[1]; n-octanol/water", "value": 4.86}, {"measurement": "Log P (n-octanol/water)", "setting": "[2]; [8]", "value": 4.86}]}
{"smiles": "O=C(Cc1ccccc1)OCCc1ccccc1", "note": "[2-PHENYLETHYL PHENYLACETATE]", "values": [{"measurement": "logP", "setting": "[1]", "value": 3.59}, {"measurement": "Log P (n-octanol/water)", "setting": "[2]; Table 7, citrus note", "value": 3.59}, {"measurement": "Log P (n-octanol/water)", "setting": "[2]; [5]", "value": 3.59}, {"measurement": "Log P (n-octanol/water)", "setting": "[2]; [10]", "value": 3.59}]}
{"smiles": "CC/C=C\\CC1=C(C)CCC1=O", "values": [{"measurement": "Volatility (μg/l air)", "setting": "[3]; [5]", "value": 56.72, "unit": "μg/l air"}, {"measurement": "Volatility (μg/l air)", "setting": "[3]; [10]", "value": 56.72, "unit": "μg/l air"}, {"measurement": "logP", "setting": "[1]; n-octanol/water", "value": 2.61}, {"measurement": "Log P (n-octanol/water)", "setting": "[2]; [10]", "value": 2.61}]}
{"smiles": "O=C(OCc1ccccc1)c1ccccc1", "note": "[BENZYL BENZOATE]", "values": [{"measurement": "logP", "setting": "[1]; n-octanol/water", "value": 3.64}, {"measurement": "Log P (n-octanol/water)", "setting": "[2]; Table 7, citrus note", "value": 3.64}]}
{"smiles": "CC(C)C(=O)OCCOc1ccccc1", "note": "[2-phenoxyethyl 2-methylpropanoate]", "values": [{"measurement": "logP", "setting": "[1]; n-octanol/water", "value": 2.82}, {"measurement": "Log P (n-octanol/water)", "setting": "[2]; [8]", "value": 2.82}]}
{"smiles": "CCCCCCOC(C)=O", "note": "[HEXYL ACETATE]", "values": [{"measurement": "logP", "setting": "[1]; n-octanol/water", "value": 3.09}, {"measurement": "Log P (n-octanol/water)", "setting": "[2]; [6]", "value": 3.09}]}
{"smiles": "CCCCC/C=C\\C=C\\C(=O)OCC", "note": "[ethyl (2E,4Z)-2,4-decadienoate]", "values": [{"measurement": "logP", "setting": "[1]; n-octanol/water", "value": 4.69}, {"measurement": "Log P (n-octanol/water)", "setting": "[2]; [8]", "value": 4.69}]}
{"smiles": "CC/C=C\\CCOC(=O)c1ccccc1", "note": "[(3Z)-3-hexen-1-yl benzoate]", "values": [{"measurement": "logP", "setting": "[1]; n-octanol/water", "value": 4.21}, {"measurement": "Log P (n-octanol/water)", "setting": "[2]; [8]", "value": 4.21}, {"measurement": "Log P (n-octanol/water)", "setting": "[2]; Table 7, citrus note", "value": 4.21}]}
